How the values were obtained:
[1] = test system: tissue adenosine; experiment: In vivo effect on adenosine levels in various rat tissues; design: species or system Fischer 344 rats
Protocol: Folinic acid (50 mg/kg) was administered intraperitoneally once daily for fourteen days. […] Hearts were removed from animals and flash frozen in liquid nitrogen with 10 s of death. Liver and lungs were removed en bloc and flash frozen with 30 s of death. Brain tissue was subsequently dissected.

[2] = test system: HT-29 SF cells; experiment: Reversal of DHEA effect on cell cycle; assay type: cell-based, human; settings: 25 μM DHEA, 48 and 72 hours
[3] = test system: HT-29 SF cells; experiment: Reversal of DHEA-mediated growth inhibition; assay type: cell-based, human; settings: 25 μM DHEA, 48 hours; 2 μM MVA, 80 μM SQ, 15 μg/ml CH, RN 30 μM each, DN 20 μM each
[4] = test system: HT-29 SF cells; experiment: DHEA effect on cell cycle distribution (flow cytometry); assay type: cell-based, human
Protocol: Cells were plated at 10^5/60-mm dish in duplicate. […] Cultures were trypsinized following […] and fixed and stained using a modification of a procedure of Bauer et al., Cancer Res. 46, 3173-3178 (1986). Briefly, cells were collected by centrifugation and resuspended in cold phosphate-buffered saline. Cells were fixed in 70% ethanol, washed, and resuspended in phosphate-buffered saline.
After 24, 48, and 72 hours, cells were harvested, fixed in ethanol, and stained with propidium iodide, and the DNA content/cell was determined by flow cytometric analysis. The percentage of cells in G1, S, and G2M phases was calculated using the Cellfit cell cycle analysis program. S phase is marked by a quadrangle for clarity. Representative histograms from duplicate determinations are shown. The experiment was repeated three times.

[5] = test system: HT-29 SF cells; experiment: DHEA effect on cell growth (Coulter counter); assay type: cell-based, human; settings: 12.5-200 μM, 24-72 hours, FIG. 14
[6] = Particle size of DHEA-S powders (laser diffraction, light microscope); assay type: physicochemical
Protocol: Approximately 1 g sample was passed through the jet mill, once, and approximately 2 g sample were passed through the jet mill twice. […] The resulting solution was sonicated for 3 minutes and appeared fully dispersed. The dispersed solutions were tested on a Malvern Mastersizer X with a small volume sampler (SVS) attachment. One sample of dispersed material was tested 5 times. The median particle size or D (v, 0.5) of unmilled material was 52.56 μm and the % RSD (relative standard deviation) was 7.61 for the 5 values. The D (v, 0.5) for a single pass through the jet mill was 3.90 μm and the % RSD was 1.27, and the D (v, 0.5) from a double pass through the jet mill 3.25 μm and the % RSD was 3.10.
The solution was spray-dried with a B-191 Mini Spray-Drier (Buchi, Flawil, Switzerland) with an inlet temperature of 55° C., outlet temperature of 40° C., at 100% aspirator, at 10% pump, nitrogen flow at 40 mbar and spray flow at 600 units. The spray-dried product was suspended in hexane and Span85 surfactant added to reduce agglomeration. The dispersions were sonicated with cooling for 3-5 minutes for complete dispersion and the dispersed solutions tested on a Malvern Mastersizer X with a Small Volume Sampler (SVS) attachment. […] Visual examination by light microscope of the dispersions of each batch confirmed that spray drying produced small respirable size particles. The mean particle size was 2.4 μm and 2.0 μm for each batch, respectively.
(§1) Surface area is determined using five point BET analyses are performed with nitrogen as the adsorbing gas (P/Po=0.05 to 0.30) using a Micromeritics TriStar surface area analyzer. Particle size distributions are measured by laser diffraction using a Micromeritics Saturn Digisizer where the particles are suspended in mineral oil th sodium dioctyl sodium sulfosuccinate as a dispersing agent. Drug substance water content is measured by Karl Fischer titration (Schott Titroline KF). Pure water is used as the standard and all relative standard deviations for triplicates are less than 1%. Powder is added directly to the titration media.

[7] = Fine particle fraction, single-dose Acu-Breathe inhaler into Andersen impactor; assay type: physicochemical; settings: neat micronized powder, 30 to 75 L/min, FIG. 1
Protocol: These blisters are actuated into the Andersen 8-stage cascade impactor at flow rates ranging from 30 to 75 L/min with a glass twin-impinger throat. Stages 1-5 of the Andersen impactor are rinsed together to obtain an estimate of the fine particle fraction. Pooling the drug collected from multiple stages into one assay make the method much more sensitive. […] Using a carrier with a larger particle size typically improves the aerosol properties of micronized drug substances.
Approximately 25 mg of this powder is filled and sealed in foil blisters and aerosolized using the single-dose device at 60 L/min. The aerosol results for this preliminary powder blend are satisfactory for a respiratory drug delivery system. […] This diameter is smaller than the median diameter measured for micronized DHEA-S.dihydrate by laser diffraction. Irregularly shaped particles can behave aerodynamically as smaller particles since their longest dimension tends to align with the air flow field. Therefore, it is common to see a difference between the two methods. Diffraction measurements are a quality control test for the input material while cascade impaction is a quality control test for the finished product.

[8] = Physicochemical testing of DHEA-S dihydrate (BET surface area, Karl Fischer water, impurities)
Protocol: as §1

[9] = Solid-state stability with and without lactose (DHEA formed, HPLC); assay type: physicochemical
Source text: These conditions were used to stress the formulation in order to predict its long-term stability results. […] This color change is accompanied by a significant change in the chromatogram as shown in. FIG. 1. The primary degradant is DHEA. […] The materials on accelerated storage become more cohesive with time as evidenced by clumping during sample weighing for chemical analysis. […] This is a considerable disadvantage since lactose is the most commonly used inhalation excipient for dry powder formulations. Continuing with the virtually anhydrous form would mean limiting formulations to neat powder or undertaking more comprehensive safety studies to use a novel excipient.

[10] = Solubility of DHEA-S dihydrate and nebulizer solution properties; assay type: physicochemical; settings: for solubility: range of triplicates
Source text: Inhalation of pure water can produce a cough stimulus. […] The temperature effect is weaker at high NaCl concentrations.

[11] = Short-term solution stability of DHEA-S in 0.12% NaCl; assay type: physicochemical; settings: for appearance / decomposition on storage: 10 mg/mL in 0.12% NaCl
Protocol: Aliquots of this solution are filled into clear glass vials and stored at RT (24-26° C.) and at 40° C. The samples are checked daily for DHEA-S content, DHEA content, and appearance. For each time point, duplicate samples are withdrawn and diluted from each vial. […] The study is stopped on day three. […] The solution should easily be stable for the day of reconstitution in a clinical trial. The following section describes the aerosol properties of this formulation.

[12] = test system: rat peritoneal mast cells; experiment: Compound 48/80-induced histamine release from rat peritoneal mast cells; assay type: cell-based
Protocol: Following incubation, the mixture is cooled to 4° C. then centrifuged at 4500 rpm for 5 min. The supernatant is collected and mixed for 30 min at 4° C. with 5% TCA (trichloroacetic acid) to cause protein precipitation. After centrifugation at 9500×g for 15 min, the supernatant is collected and mixed with 0.25 M HCl. Thereafter, the samples are mixed with 2M NaOH and 0.2% OPT (ortho-phtalaldehyde).and incubated for 30 min at 4° C. in darkness, after which time the reaction is stopped by addition of 0.5 M H2SO4.
The amount of secreted histamine is quantified by measuring the fluorescence intensity at λex=360 nm and λem=450 nm using a spectrofluorimeter (GeminiXS, Molecular Devices). The results are expressed as a percent inhibition of control histamine secretion.

[13] = rat, daily for two weeks, DHEA, high dose methyltestosterone

For `Nc1nc(=O)c2c([nH]1)NCC(CNc1ccc(C(=O)N[C@@H](CCC(=O)O)C(=O)O)cc1)N2C=O` (mixture of isomers) [Folinic Acid], the “Intracellular adenosine, Brain” value ([1]; rat brain, once daily 14 days, DHEA 300 mg/kg, methyltestosterone 40 mg/kg by gavage, folinic acid 50 mg/kg i.p., mean ± SEM) was 0.72 ± 0.09 nmols/mg protein, the “Intracellular adenosine, Heart” value ([1]; rat heart, once daily 14 days, DHEA 300 mg/kg, methyltestosterone 40 mg/kg by gavage, folinic acid 50 mg/kg i.p., mean ± SEM) was 12.4 ± 2.1 nmols/mg protein and the “Intracellular adenosine, Liver” value ([1]; rat liver, once daily 14 days, DHEA 300 mg/kg, methyltestosterone 40 mg/kg by gavage, folinic acid 50 mg/kg i.p., mean ± SEM) was 16.4 ± 2.4 nmols/mg protein. The “adenosine levels, folinic acid administered alone” value ([1]; rat, 50 mg/kg i.p. 14 days) was “increase in adenosine levels for all organs studied” and the “effect of coadministration of folinic acid on steroid-mediated adenosine depletion” value ([1]; rat, with DHEA or methyltestosterone) was “completely abrogated”.

In the case of `CC(C)CCC[C@@H](C)[C@H]1CC[C@H]2[C@@H]3CC=C4C[C@@H](O)CC[C@]4(C)[C@H]3CC[C@]12C` [CH, cholesterol], the “prevention of DHEA-induced S phase depletion by supplement” value [2] is reported as “very little effect at 48 hours and no effect at 72 hours” and the “reversal of DHEA-induced growth inhibition by supplement” value [3] is reported as “no such effect”.

With `C[C@]12CC[C@H](O)CC1=CC[C@@H]1[C@@H]2CC[C@]2(C)C(=O)CC[C@@H]12` [DHEA, 3β-hydroxyandrost-5-en-17-one] the cell cycle distribution ([4]; 200 μM DHEA, 24 hours) was “increase in the percentage of cells in G1 and a decreased proportion of cells in S phase”, the cell cycle block ([4]; 25-200 μM, 24-72 hours, FIG. 15) was “G1 block” and the cell cycle distribution ([4]; 25 or 50 μM DHEA, 72 hours) was “percentage of cells in G1 phase was increased”. The cell cycle distribution ([4]; 25 or 50 μM DHEA, initial 24 hours) was “unchanged” and the inhibition of growth [5] was “time- and dose-dependent inhibition of growth”.

For `CC12CCC3C(CC=C4CC(OS(=O)(=O)[O-])CCC43C)C1CCC2=O.[Na+]` (centres unmarked) [DHEA-S dihydrate], the “Particle size (D50%)” value ([6]; Bulk, before micronization) was 31 microns, the “Particle size (D50%)” value ([6]; Micronized) was 3.7 microns and the “fine particle fraction as a function of flow rate” value [7] was “higher fine particle fraction than the virtually anhydrous material”. The Impurities ([8]; Bulk) was “No significant peaks”, the Water ([8]; Bulk) was 8.5 % w/w and the Impurities ([8]; Micronized) was “No significant peaks”. For the same compound, the Surface area ([8]; Micronized) was 4.9 m^2/g, the Water ([8]; Micronized) was 8.4 % w/w and the DHEA % formed ([9]; 50° C., 1 week) was 0.216%. The DHEA % formed ([9]; 50° C., 3 weeks) was 0.317%, the DHEA % formed ([9]; 50° C., 4 weeks) was 0.374% and the DHEA % formed ([9]; Control: neat, sealed vial, 25° C., 4 weeks) was 0.218%. The DHEA % formed ([9]; Control: neat, sealed vial, 25° C., first time column (head empty, time 0)) was 0.213%, the “water content, starting value” ([9]; before storage) was 8.8% and the “water content after accelerated storage” value ([9]; one week at 50° C.) was 8.66%.

With `C[C@]12CC[C@H](OS(=O)(=O)[O-])CC1=CC[C@@H]1[C@@H]2CC[C@]2(C)C(=O)CC[C@@H]12.[Na+]` [DHEA-S, sodium dehydroepiandrostenone sulfate] the solubility in hexane [10] was “insoluble”, the solubility ([10]; 0.9% NaCl, refrigerated (7-8° C.)) was 1.1 to 1.3 mg/mL and the Ksp ([10]; 15° C., interpolated) was roughly 1316 mM^2. For the same compound, the “equilibrium constant Ksp” value ([10]; refrigerated (7-8° C.)) was 665 mM^2, the “equilibrium constant Ksp” value ([10]; room temperature (24-25° C.)) was 2236 mM^2 and the solubility ([10]; ~25° C., 0% NaCl, excess DHEA-S dihydrate) was 16.5 to 17.4 mg/mL. For the same compound, the “solution stability of nebulizer formulation” value ([11]; 7.5 mg/mL in 0.12% NaCl, RT) was “stable for at least one day at RT”, the “appearance / decomposition on storage” value ([11]; 40° C.) was “became cloudy after two days of storage” and the “appearance / decomposition on storage” value ([11]; RT (24-26° C.)) was “slight precipitate is observed on the third day”.

With `C[C@@](O)(CCO)CC(=O)O` [MVA, mevalonic acid] the “prevention of DHEA-induced S phase depletion by supplement” value [2] was “partially prevented this effect in the initial 48 hours but not after 72 hours” and the “reversal of DHEA-induced growth inhibition by supplement” value [3] was “partially overcome”.

In the case of `C[C@]12CCC(=O)C=C1CC[C@@H]1[C@@H]2CC[C@@]2(C)[C@H]1CC[C@]2(C)O` [Methyltestosterone], the “Intracellular adenosine, Liver” value ([1]; rat liver, methyltestosterone 120 mg/kg, mean ± SEM) is reported as 5.1 ± 0.5 nmols/mg protein, the “depletion of adenosine in brain” value [1, 13] is reported as 34% and the “depletion of adenosine in heart” value [1, 13] is reported as 22%. The “Intracellular adenosine, Liver” value ([1]; rat, in vivo) was 16.5 ± 0.9 nmols/mg protein.

In the case of `CC(C)=CCC/C(C)=C/CC/C(C)=C/CC/C=C(\C)CC/C=C(\C)CCC=C(C)C` [SQ, squalene], the “reversal of DHEA-induced growth inhibition by supplement” value [3] is reported as “no such effect”.

`CC(C)(C)NCC(O)c1ccc(O)c(CO)c1` (stereo not drawn) [Salbutamol, (α1-tert-butylaminomothyl)-4-hydroxy-m-xylene-α1,α3-diol] gave an inhibition at 1 pM ([12]; Rattus norvegicus, Mast cell) of -1%, an inhibition at 10 pM ([12]; Rattus norvegicus, Mast cell) of 7% and an inhibition at 0.0001 µM ([12]; Rattus norvegicus, Mast cell) of 2%. For the same compound, the “inhibition of compound 48/80-induced histamine release” value ([12]; Salbutamol 1, 10 and 100 pM alone) was “no or trivial inhibition”.

From patent US20050113318A1, “Combination of dehydroepiandrosterone or dehydroepiandrosterone-sulfate with a beta-agonist bronchodilator for treatment of asthma or chronic obstructive pulmonary disease” (priority 2003, published 2005)
